In brackets after ≈: the same amount, converted by molar mass.
Assays:
[1] = tested on: Mycobacterium tuberculosis; test: Antibacterial activity against Mycobacterium tuberculosis; type: functional, organism-based
[2] = Selectivity index, ratio of CC50 african green monkey Vero cells to IC50 for Mycobacterium tuberculosis; type: toxicity; conditions: read-out: Ratio CC50/IC50
[3] = species on record: Rattus norvegicus; test: Anticonvulsant activity in tryptamine seizure potentiated Wistar rat; type: functional
[4] = tested on: Escherichia coli; test: Antibacterial activity against Escherichia coli assessed as diameter of inhibition zone at 100 ppm; type: functional; conditions: read-out: DIZ
[5] = tested on: Bacillus subtilis; test: Antibacterial activity against Bacillus subtilis assessed as diameter of inhibition zone at 100 ppm; type: functional; conditions: read-out: DIZ
[6] = tested on: Pseudomonas aeruginosa; test: Antibacterial activity against Pseudomonas aeruginosa assessed as diameter of inhibition zone at 100 ppm; type: functional; conditions: read-out: DIZ
[7] = tested on: Aspergillus niger; test: Antifungal activity against Aspergillus niger assessed as diameter of inhibition zone at 100 ppm; type: functional; conditions: read-out: DIZ
[8] = species on record: Mus musculus; test: Antidepressant activity in Swiss albino mouse assessed as change in immobility by forced swim test; type: functional
[9] = species on record: Mus musculus; test: Antidepressant activity in Swiss albino mouse assessed as decrease in immobility time by forced swim test (reference value: 203.3 sec); type: functional
[10] = species on record: Mus musculus; test: Antidepressant activity in Swiss albino mouse assessed as decrease in immobility time by tail suspension test (reference value: 185.8 sec); type: functional
[11] = species on record: Mus musculus; test: Antidepressant activity in Swiss albino mouse assessed as change in immobility by tail suspension test; type: functional
[12] = tested on: Bacillus subtilis; test: Antibacterial activity against Bacillus subtilis; type: functional
[13] = tested on: Streptococcus pyogenes; test: Antibacterial activity against Streptococcus pyogenes; type: functional
[14] = tested on: Pseudomonas aeruginosa; test: Antibacterial activity against Pseudomonas aeruginosa; type: functional
[15] = tested on: Escherichia coli; test: Antibacterial activity against Escherichia coli; type: functional
[16] = tested on: Geotrichum candidum; test: Antifungal activity against Geotrichum candidum; type: functional
[17] = molecular target: Cholinesterase (Equus caballus) (UniProt P81908); test: Inhibition of equine serum BChE at 10^-3 M relative to control; type: cell-free; conditions: dose 1.0 10^-3M
Chain of Cholinesterase (Equus caballus) (P81908 whole entry): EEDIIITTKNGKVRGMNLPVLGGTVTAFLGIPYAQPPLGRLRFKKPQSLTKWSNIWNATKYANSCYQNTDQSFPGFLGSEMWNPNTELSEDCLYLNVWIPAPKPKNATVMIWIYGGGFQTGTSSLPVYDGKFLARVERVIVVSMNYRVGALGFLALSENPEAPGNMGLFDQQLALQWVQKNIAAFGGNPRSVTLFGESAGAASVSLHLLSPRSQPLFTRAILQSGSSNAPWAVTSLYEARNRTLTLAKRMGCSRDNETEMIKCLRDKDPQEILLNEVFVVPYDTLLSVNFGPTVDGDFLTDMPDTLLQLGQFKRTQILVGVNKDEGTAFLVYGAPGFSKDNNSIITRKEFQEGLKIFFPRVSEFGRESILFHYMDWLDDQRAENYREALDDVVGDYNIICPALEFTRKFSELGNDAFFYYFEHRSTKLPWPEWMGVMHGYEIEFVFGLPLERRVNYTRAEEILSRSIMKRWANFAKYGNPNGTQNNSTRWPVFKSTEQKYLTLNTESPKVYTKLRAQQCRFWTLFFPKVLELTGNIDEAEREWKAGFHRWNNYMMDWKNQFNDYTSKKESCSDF

[18] = molecular target: T1, Amine oxidase [flavin-containing] A (Homo sapiens, UniProt P21397); test: Inhibition of MAO-A (unknown origin) relative to control
T1 sequence (P21397 whole entry): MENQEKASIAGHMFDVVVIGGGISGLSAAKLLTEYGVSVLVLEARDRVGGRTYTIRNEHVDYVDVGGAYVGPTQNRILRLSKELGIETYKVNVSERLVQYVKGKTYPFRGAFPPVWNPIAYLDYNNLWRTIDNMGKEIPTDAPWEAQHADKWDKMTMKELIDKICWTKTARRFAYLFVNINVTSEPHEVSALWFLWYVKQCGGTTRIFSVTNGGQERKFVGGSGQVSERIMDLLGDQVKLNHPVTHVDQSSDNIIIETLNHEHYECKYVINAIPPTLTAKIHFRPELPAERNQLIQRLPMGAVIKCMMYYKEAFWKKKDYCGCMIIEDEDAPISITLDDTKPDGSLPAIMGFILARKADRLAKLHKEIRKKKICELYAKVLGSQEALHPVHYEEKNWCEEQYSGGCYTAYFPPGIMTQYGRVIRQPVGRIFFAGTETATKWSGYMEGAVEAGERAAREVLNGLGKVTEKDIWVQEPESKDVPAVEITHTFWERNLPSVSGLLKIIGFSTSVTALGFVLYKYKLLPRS

[19] = molecular target: T2, Amine oxidase [flavin-containing] B (Homo sapiens, UniProt P27338); test: Inhibition of MAO-B (unknown origin)
T2 sequence (P27338 whole entry): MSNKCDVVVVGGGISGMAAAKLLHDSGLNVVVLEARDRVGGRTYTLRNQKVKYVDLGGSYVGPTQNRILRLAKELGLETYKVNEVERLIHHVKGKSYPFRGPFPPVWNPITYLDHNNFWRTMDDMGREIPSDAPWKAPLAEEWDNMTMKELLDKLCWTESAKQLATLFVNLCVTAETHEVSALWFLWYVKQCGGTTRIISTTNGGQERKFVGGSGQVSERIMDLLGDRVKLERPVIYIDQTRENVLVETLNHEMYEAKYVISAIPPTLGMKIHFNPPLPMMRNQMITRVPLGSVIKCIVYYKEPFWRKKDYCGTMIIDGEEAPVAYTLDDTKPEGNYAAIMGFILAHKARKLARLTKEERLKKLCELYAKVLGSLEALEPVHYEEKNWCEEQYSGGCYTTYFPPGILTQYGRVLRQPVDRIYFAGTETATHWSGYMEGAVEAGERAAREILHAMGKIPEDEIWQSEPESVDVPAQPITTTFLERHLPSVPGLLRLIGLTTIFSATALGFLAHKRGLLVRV

[20] = molecular target: T3, Prostaglandin G/H synthase 1 (Ovis aries, UniProt P05979); test: Inhibition of ovine COX-1
T3 sequence (P05979 whole entry): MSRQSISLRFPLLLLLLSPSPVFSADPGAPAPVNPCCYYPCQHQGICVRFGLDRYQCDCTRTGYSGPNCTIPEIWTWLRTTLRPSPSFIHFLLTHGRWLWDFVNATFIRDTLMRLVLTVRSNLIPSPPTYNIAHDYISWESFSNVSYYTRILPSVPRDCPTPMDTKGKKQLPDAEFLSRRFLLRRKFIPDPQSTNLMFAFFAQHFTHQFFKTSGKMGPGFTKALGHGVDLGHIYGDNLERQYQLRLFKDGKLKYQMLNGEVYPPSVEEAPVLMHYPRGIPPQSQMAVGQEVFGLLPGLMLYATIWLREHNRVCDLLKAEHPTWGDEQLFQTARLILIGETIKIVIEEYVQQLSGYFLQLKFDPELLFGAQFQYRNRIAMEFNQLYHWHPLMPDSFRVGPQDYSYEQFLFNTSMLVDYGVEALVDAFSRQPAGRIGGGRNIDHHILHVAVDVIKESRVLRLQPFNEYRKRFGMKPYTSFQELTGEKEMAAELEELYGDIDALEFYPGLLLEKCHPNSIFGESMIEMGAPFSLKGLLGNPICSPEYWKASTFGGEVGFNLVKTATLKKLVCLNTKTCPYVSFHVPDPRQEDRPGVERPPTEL

[21] = molecular target: T4, Prostaglandin G/H synthase 2 (Ovis aries, UniProt P79208); test: Inhibition of ovine COX-2
T4 sequence (P79208 whole entry): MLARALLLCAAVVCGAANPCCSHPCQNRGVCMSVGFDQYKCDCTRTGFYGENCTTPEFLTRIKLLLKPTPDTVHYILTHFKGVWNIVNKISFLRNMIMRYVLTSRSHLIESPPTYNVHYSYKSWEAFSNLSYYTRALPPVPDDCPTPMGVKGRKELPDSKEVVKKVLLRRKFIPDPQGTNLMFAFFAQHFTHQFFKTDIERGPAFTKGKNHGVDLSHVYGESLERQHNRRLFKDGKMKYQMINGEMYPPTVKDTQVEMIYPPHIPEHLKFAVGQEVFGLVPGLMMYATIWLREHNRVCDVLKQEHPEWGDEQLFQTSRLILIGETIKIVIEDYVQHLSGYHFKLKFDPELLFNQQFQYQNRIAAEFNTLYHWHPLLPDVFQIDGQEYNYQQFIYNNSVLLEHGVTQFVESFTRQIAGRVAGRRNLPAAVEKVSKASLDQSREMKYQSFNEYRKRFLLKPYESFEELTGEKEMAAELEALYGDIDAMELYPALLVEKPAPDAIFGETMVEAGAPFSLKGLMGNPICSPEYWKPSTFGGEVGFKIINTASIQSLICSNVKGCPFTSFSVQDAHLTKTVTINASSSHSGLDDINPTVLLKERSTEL

[22] = species on record: Ovis aries; test: Selectivity index, ratio of IC50 for ovine COX-1 to IC50 for ovine COX-2
[23] = tested on: PC-12; test: Anti amyotrophic lateral sclerosis activity in rat PC-12 cells assessed as decrease in G93A SOD1 aggregate formation relative to control; type: functional; design: scale not given: the % may be the effect or the level left
[24] = tested on: PC-12; test: Anti amyotrophic lateral sclerosis activity in rat PC-12 cells assessed as decrease in G93A SOD1 aggregate formation; type: functional; conditions: read-out: ED50 (the source's name)
[25] = tested on: PC-12; test: Cytotoxicity against rat PC-12 cells; type: functional; conditions: read-out: LD50 (the source's name)
[26] = tested on: MCF7; test: Cytotoxicity against human MCF7 cells; type: functional, cell-based
[27] = tested on: Ehrlich; test: Cytotoxicity against mouse Ehrlich ascites cells assessed as dead cells at 100 ug/ml; type: functional; conditions: dose 100 µg/ml
[28] = tested on: Ehrlich; test: Cytotoxicity against mouse Ehrlich ascites cells assessed as dead cells at 500 ug/ml; type: functional; conditions: dose 500 µg/ml
[29] = tested on: Ehrlich; test: Cytotoxicity against mouse Ehrlich ascites cells assessed as dead cells at 25 ug/ml; type: functional; conditions: dose 25 µg/ml
[30] = tested on: HepG2; test: Cytotoxicity against human HepG2 cells; type: functional, cell-based
[31] = tested on: PC-3; test: Cytotoxicity against human PC-3 cells; type: functional, cell-based

O=C1CC(NC(=O)CNc2ccc(Cl)cc2)=NN1
IC50 [1]: < 370 nM | selectivity ratio [2]: 633

C#CCN(C)[C@H](C)Cc1ccccc1 [SELEGILINE]
ED50 [3]: 300 nM

O=C1CC(NC(=O)CN2CCNCC2)=NN1
IC50 [1]: < 440 nM | selectivity ratio [2]: 631

Cc1ccc(/N=N/c2c(N)n[nH]c2N)cc1
zone of inhibition at 100 µg/mL [4]: 23.1 mm | zone of inhibition at 100 µg/mL [5]: 25.3 mm | zone of inhibition at 100 µg/mL [6]: 19.3 mm | zone of inhibition at 100 µg/mL [7]: 25.5 mm

CN(C)CCCN1c2ccccc2CCc2ccccc21 [IMIPRAMINE]
Activity [8]: -53.8% | Time [9]: 94 s | Time [10]: 109 s | Activity [11]: -41.3%

CC(=O)N1N=C(C)/C(=N/Nc2cc(Cl)cc(Cl)c2)C1=O
MIC [12]: ≤ 12.5 µg/mL | MIC [13]: ≤ 12.5 µg/mL | MIC [14]: ≤ 12.5 µg/mL | MIC [15]: > 200 µg/mL | MIC [16]: > 200 µg/mL

Cc1c(/N=C/c2ccc(OCCCN(C)C)cc2)c(=O)n(-c2ccccc2)n1C
inhibition [17]: 35.3% | inhibition (INH) [18]: 38.1% | IC50 [19]: 49 nM

NS(=O)(=O)c1ccc(N2N=C/C(=N/Nc3ccccc3C(=O)O)C2=O)cc1
IC50 [20]: 4080 nM | IC50 [21]: 770 nM | Ratio IC50 [22]: 5.29

C[C@@H]1C[C@H]2O[C@@H]2/C=C\C=C\C(=O)Cc2c(Cl)c(O)cc(O)c2C(=O)O1 [RADICICOL]
Activity [23]: 80%

Cc1cc(SCc2cc(=O)[nH][nH]2)c(Cl)cc1Cl
EC50 [24]: 400 nM | CC50 [25]: > 100000 nM

O=c1[nH]cc(F)c(=O)[nH]1 [FLUOROURACIL]
IC50 [26]: 5.5 µg/mL (≈ 42.3 µM) | Activity [27]: 97.3% | Activity [28]: 68% | Activity [29]: 38.6% | IC50 [30]: 7.9 µg/mL (≈ 60.7 µM) | IC50 [31]: 8.3 µg/mL (≈ 63.8 µM)

Nc1cc(=O)n(-c2ccc([N+](=O)[O-])cc2[N+](=O)[O-])[nH]1
zone of inhibition at 100 µg/mL [4]: 15.3 mm | zone of inhibition at 100 µg/mL [5]: 18.1 mm | zone of inhibition at 100 µg/mL [6]: 17.4 mm | zone of inhibition at 100 µg/mL [7]: 15.2 mm

From ChEMBL document CHEMBL5233210, “Pyrazolone structural motif in medicinal chemistry: Retrospect and prospect” (Eur J Med Chem, 2020)
